Columns and labels:
Format in all cases: cell-based
[1] = system: rat peritoneal mast cells; experiment: MAPK activation: phosphorylation of ERK1/2 in rat peritoneal mast cells (RPMC); settings: PTX 0.1 μg/mL, 4 hours before assay
Experimental: Pertussis toxin (hereinafter PTX) was added to the cells in a final concentration of 0.1 μg/mL 4 hours before assay. RPMC was washed in ice-chilled assay buffer (Tyrode Buffer, 0.01% fatty acid free-BSA (SIGMA), 1 mM CaCl2, 1 mM MgCl2), and suspended in 2×10^6 cells/ml. The suspension was dispensed in a 1.5 mL tube followed by preincubation for 15 minutes at 37° C. The lysoPS solution was added thereto in an equimolar amount. After incubation at 37° C., the reaction was terminated by quenching. The cells were precipitated by centrifugation and the assay buffer was aspirated. After washing in PBS, 1×SDS sample buffer/DTT was added to the cells to lyse the cells. After ultrasonication for 15 seconds, heating at 95° C. for 5 minutes was followed by quenching.
(§1) Detection by SDS-PAGE and western blotting were performed as follows. After separation using 10% Bis-Tris gel (Invitrogen), the gel was transferred to Immuno-Blot PVDF Membrane (BIO-RAD). The membrane was blocked with Block Ace (Dai-Nippon Pharmaceutical) and incubated at 4° C. overnight with a primary antibody (Phospho-p42/p44 MAP Kinase (Thr202/Thr204) Antibody (CST) or p42/p44 MAP Kinase Antibody (CST)) and further incubated at room temperature for an hour with a secondary antibody (Anti-rabbit IgG (CST)). The membrane after the antibody reaction was visualized by chemiluminescence using ECL PLUS (Amersham Biosciences). […]

GPR34 [2] = target: T1, GPR34 (Homo sapiens, UniProt Q9UPC5); experiment: MAPK activation: phosphorylation of ERK1/2 in human GPR34-expressed CHO cells (western blotting); settings: PTX 0.1 μg/mL, 20 hours before the assay
T1 construct: expressed in transfected cells
T1 sequence (Q9UPC5 whole entry): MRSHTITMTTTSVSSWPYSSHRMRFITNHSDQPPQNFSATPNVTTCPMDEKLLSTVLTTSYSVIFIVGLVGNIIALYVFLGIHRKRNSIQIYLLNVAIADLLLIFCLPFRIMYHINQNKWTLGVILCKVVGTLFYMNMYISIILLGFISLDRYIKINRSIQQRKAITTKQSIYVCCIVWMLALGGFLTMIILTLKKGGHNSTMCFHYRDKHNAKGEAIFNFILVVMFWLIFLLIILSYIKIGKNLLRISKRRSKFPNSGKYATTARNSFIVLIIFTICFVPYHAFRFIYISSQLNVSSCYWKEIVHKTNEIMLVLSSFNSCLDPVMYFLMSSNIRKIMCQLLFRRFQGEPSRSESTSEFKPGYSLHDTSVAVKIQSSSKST
Experimental: The cells were prepared as described below. Human GPR34-expressed CHO cells were scraped off with 0.05% trypsin-EDTA (GIBCO) and suspended in a medium (MEM-α (GIBCO), supplemented with 10% FBS (GIBCO) and penicillin/streptomycin (BIOWHITTAKER)). After centrifugation, the cells precipitated were suspended in the medium in 2×10^5 cells/ml and a 1 mL aliquot was plated on a 35 mm cell culture dish. After incubation overnight in a CO2 incubator, the medium was aspirated and washed in PBS. Then 1 mL of serum-free medium (MEM-α (GIBCO), supplemented with penicillin/streptomycin (BIOWHITTAKER)) and incubation was performed in a CO2 incubator. Pertussis toxin (hereinafter PTX) was added in a final concentration of 0.1 μg/mL 20 hours before the assay.
The cells were activated as follows. The medium was aspirated and washed in PBS. Thereafter, 500 μL of assay buffer (HBSS (GIBCO), 10 mM HEPES (Dojin Chemical Laboratory)) was added to perform preincubation for 15 minutes at 37° C. The lysoPS solution and […] of PECGF ([…] cell growth factor) solution as a positive control were added. After the mixture was incubated at 37° C., the reaction was terminated by quenching. The assay buffer was aspirated and washed in PBS. Then, 1×SDS sample buffer/DTT was added to the cells to recover the cells. After ultrasonication for 15 seconds, heating at 95° C. for 5 minutes was followed by quenching.
as §1, with “Membrane (Bio-Rad).” for “Membrane (BIO-RAD).”, “at room temperature for an hour” for “at 4° C. overnight”, “hour using” for “hour with”

[3] = system: mouse bone marrow-derived mast cells; experiment: MAPK activation: phosphorylation of ERK1/2 in mouse bone marrow-derived mast cells (BMMC); settings: PTX 0.1 μg/mL, 4 hours before assay
Experimental: BMMC was established by collecting bone marrow fluid from the femur of male BALB/c mouse (Japan SLC), rinsing in RPMI1640 (Nikken Bio Medical Laboratory) and then incubating in a medium (RPMI1640, 50% WEHI-3 culture supernatant, 10% FBS (GIBCO), penicillin/streptomycin (BIOWHITTAKER), Non-Essential amino acids (GIBCO)) for 4 weeks. The cells were incubated in a CO2 incubator immediately before assay. Pertussis toxin (hereinafter PTX) was added to the cells in a final concentration of 0.1 μg/mL 4 hours before assay. BMMC was washed in ice-chilled assay buffer (Tyrode Buffer, 0.01% fatty acid free-BSA (SIGMA), 1 mM CaCl2, 1 mM MgCl2), and suspended in 2×10^6 cells/ml. The suspension was dispensed in a 1.5 mL tube followed by preincubation for 15 minutes at 37° C. The lysoPS solution and A23187 solution (Wako Pure Chemicals) as a positive control were added in equimolar amounts. After incubation at 37° C., the reaction was terminated by quenching. The cells were precipitated by centrifugation and the assay buffer was aspirated. After washing in PBS, 1×SDS sample buffer/DTT was added to the cells to lyse the cells. After ultrasonication for 15 seconds, the sample was heated at 95° C. for 5 minutes followed by quenching.
Detection by SDS-PAGE and western blotting were performed as follows. After separation using 10% Bis-Tris gel (Invitrogen), the gel was transferred to Immuno-Blot PVDF Membrane (BIO-RAD). The membrane was blocked with Block Ace (Dai-Nippon Pharmaceutical) and incubated at 4° C. overnight with a primary antibody (Phospho-p42/p44 MAP Kinase (Thr202/Thr204) Antibody (CST) or p42/p44 MAP Kinase Antibody (CST)) and further incubated at room temperature for an hour using a secondary antibody (Anti-rabbit IgG (CST)). The membrane after the antibody reaction was visualized by chemiluminescence using ECL PLUS (Amersham Biosciences). Detection and image analysis were performed using LAS1000 (FUJI FILM).

[4] = system: other receptor expression cells; experiment: cAMP production inhibitory activity on other receptor expression cells
GPR34 [5] = target: T1, GPR34; experiment: Intracellular cAMP production inhibitory activity on GPR34-expressed CHO cells (forskolin stimulated); settings: phosphatidylserine in a higher concentration
Experimental: The GPR34-expressed CHO cells prepared in (1-2) described above and selected in (1-3) described above were plated on a 24-well plate in 6×10^4 cells/well followed by incubation for 48 hours. The cells were washed with αMEM medium (pH 7.5) containing 0.2 mM 3-isobutylmethylxanthine, 0.05% BSA and 20 mM HEPES (hereinafter αMEM medium (pH 7.5) containing 0.2 mM 3-isobutylmethylxanthine, 0.05% BSA and 20 mM HEPES is referred to as the reaction buffer). Thereafter, 0.5 mL of the reaction buffer was added and the mixture was kept warm for 30 minutes in an incubator. The reaction buffer was removed and 0.25 mL of fresh reaction buffer was replenished to the cells. Then, 0.25 mL of the reaction buffer containing a sample and 2 μM forskolin was added to the cells, followed by reacting at 37° C. for 30 minutes. The reaction solution was removed and 0.5 mL of the cell lysis solution attached to cAMP EIA kit (Applied Biosystems) to extract cAMP in the cells. The cAMP level in the extract was quantified using the same kit. Based on this measurement data, the cAMP production inhibitory activity was calculated based on the equation shown below and expressed in terms of percentage to the control group. […]

Substance	effect of PTX pretreatment on phosphorylation of ERK1/2 by lysoPS [1]	effect of PTX pretreatment on phosphorylation of ERK1/2 by lysoPS (GPR34 [2])	effect of PTX pretreatment on phosphorylation of ERK1/2 by lysoPS [3]	cAMP production inhibitory action on other receptor expression cells [4]	cAMP production inhibitory activity (GPR34 [5])
Pertussis toxin [PTX]	attenuated to the level below the detection limit	attenuated to the level below the detection limit	attenuated to the level below the detection limit	–	–
phosphatidylserine	–	–	–	not noted	marked activities

From patent US7951548B2, “IL-13 production inhibitor” (Takeda Pharmaceutical Company Limited, priority 2005, dated 2011)
